Data published in US20260364215A1, “Radiopharmaceutical Compositions Targeting Ephrin Type-A Receptor 2 and Uses Thereof” (PeptiDream Inc., priority 2022, published 2026).
Like-named read-outs stand apart in the source and are kept apart here. Numbered stars: 1 amine (or outer) side, 2 acyl side, 3 side chain; on linkers, the order of the positions; unused ones are H or OH. Bridge positions count the residues as written; N and C are the ends. Square brackets hold non-standard residues; d marks the D form. Side chains are listed from the residue outwards. Peptide text beside a SMILES is read from it. * marks the point of attachment. DOTA(Lu) = O=C1CN2CCN3CCN(CC(=O)*)CCN(CC2)CC(=O)[O][Lu]([O]1)[O]C(=O)C3; NH(1-deoxy-D-glucityl) = OC[C@@H](O)[C@@H](O)[C@H](O)[C@@H](O)CN*; DOTA = O=C(O)CN1CCN(CC(=O)O)CCN(CC(=O)*)CCN(CC(=O)O)CC1; Trp(1-Me,7-Cl) = Cn1cc(C[C@H](N)C(=O)O)c2cccc(Cl)c21; dPhe(3-CONH2) = NC(=O)c1cccc(C[C@@H](N)C(=O)O)c1; Piperazinyl(4-CH2COOH) = O=C(O)CN1CCN(*)CC1; Trp(1-Me) = Cn1cc(C[C@H](N)C(=O)O)c2ccccc21; PEG8 = NCCOCCOCCOCCOCCOCCOCCOCCOCCC(=O)O; NMe3Pal = CN[C@@H](Cc1cccnc1)C(=O)O; NMeF = CN[C@@H](Cc1ccccc1)C(=O)O; hCit = NC(=O)NCCCC[C@H](N)C(=O)O; Gly(cBu) = N[C@H](C(=O)O)C1CCC1; NMeE = CN[C@@H](CCC(=O)O)C(=O)O; Aad = N[C@@H](CCCC(=O)O)C(=O)O; NMeN = CN[C@@H](CC(N)=O)C(=O)O; PEG2 = NCCOCCOCCC(=O)O; CO = O=C([*:1])[*:2]; βAla = NCCC(=O)O

Target: T1, Recombinant Human EphA2 Fc Protein (Homo sapiens, UniProt P29317)
T1 construct: purchased Elabscience
Test: Interaction analysis (kinetics, KD) of peptides and conjugates against EphA2 by SPR, Biacore T200, single-cycle kinetics (Examples B15 and B22)
Type: binding
Protocol: Example B15. Interaction Analysis by SPR was Performed Using Biacore (Cytiva)
SPR assay was performed using Biacore T200 (Cytiva).
The HBS-P+ buffer (10 mM HEPES (pH7.4), 150 mM NaCl, 0.05% (v/v) Surfactant P20) containing 1% DMSO was used as running buffer. Recombinant Human EphA2 Fc Protein (Fc tag, Elabscience) was captured by Human Antibody Capture kit (Cytiva). Peptide samples in DMSO were diluted with running buffer, and prepared five serial dilutions. Using these serial dilutions, kinetics of peptides against EphA2 was measured at a flow rate of […] at 25 °C. The method adopted for sample measurement was a single-cycle kinetics method. The analysis was conducted using the evaluation software 3.0 provided with Biacore T200. Kinetics fitting was done on the difference data obtained by subtracting the baseline data from sample measurement data. KD values were calculated based on the association rate constant (ka) and dissociation rate constant (kd).
Example B22: Interaction Analysis of Conjugates by SPR was Performed Using Biacore (Cytiva)
SPR assay was performed using Biacore T200 (Cytiva) according to Example B15.

[1] = conjugates, Biacore T200 according to Example B15, Table B16, read-out: SPR Kd
[2] = peptides, Biacore T200, 25 °C, Table B12, read-out: SPR Kd

T1 sequence (P29317 24-534 limits assumed): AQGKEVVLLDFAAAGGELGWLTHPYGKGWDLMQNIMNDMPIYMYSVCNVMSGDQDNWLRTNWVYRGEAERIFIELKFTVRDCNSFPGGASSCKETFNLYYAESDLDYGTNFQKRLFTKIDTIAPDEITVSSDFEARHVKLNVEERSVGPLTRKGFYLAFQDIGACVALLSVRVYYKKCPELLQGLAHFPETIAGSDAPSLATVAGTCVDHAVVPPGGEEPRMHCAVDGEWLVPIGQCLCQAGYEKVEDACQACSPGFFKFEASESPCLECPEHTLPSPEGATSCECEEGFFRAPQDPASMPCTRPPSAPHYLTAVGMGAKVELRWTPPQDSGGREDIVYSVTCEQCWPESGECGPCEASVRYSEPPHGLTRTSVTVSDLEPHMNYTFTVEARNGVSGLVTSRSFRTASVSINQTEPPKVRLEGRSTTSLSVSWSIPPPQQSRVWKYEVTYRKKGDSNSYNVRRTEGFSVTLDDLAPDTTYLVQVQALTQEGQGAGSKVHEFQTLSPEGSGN

SMILES | Kd [1] | further results
CC(C)C[C@@H]1NC(=O)[C@H](CC(N)=O)NC(=O)[C@H](Cc2ccccc2)N(C)C(=O)[C@@H](C)NC(=O)CSC[C@@H](C(=O)NCCC(=O)N[C@H](CCCCNC(=O)CCOCCOCCNC(=O)CCOCCOCCOCCOCCOCCOCCOCCOCCNC(=O)CN2CCN(CC(=O)O)CCN(CC(=O)O)CCN(CC(=O)O)CC2)C(N)=O)NC(=O)[C@H](CCC(=O)O)NC(=O)[C@H]([C@@H](C)O)NC(=O)[C@H](Cc2cn(C)c3ccccc23)NC(=O)[C@H](C(C)C)NC(=O)[C@H](Cc2cn(C)c3ccccc23)NC(=O)[C@H](Cc2ccccc2)N(C)C(=O)[C@H](CCCC(=O)O)NC1=O.[Lu+3] [PDC_EphA2-00001417-C304] ({CH2CO}-[dA][NMeF]NL[Aad][NMeF][Trp(1-Me)]V[Trp(1-Me)]TEC[βAla][dK]([PEG2-PEG8-DOTA])-NH2; thioether N-12) | 1 to 10 nM | 
CC(C)C[C@@H]1NC(=O)[C@H](CC(N)=O)NC(=O)[C@H](Cc2cccnc2)N(C)C(=O)[C@@H](C)NC(=O)CSC[C@@H](C(=O)NCCC(=O)N[C@H](CCCCNC(=O)CCOCCOCCNC(=O)CCOCCOCCOCCOCCOCCOCCOCCOCCNC(=O)CN2CCN(CC(=O)O)CCN(CC(=O)O)CCN(CC(=O)O)CC2)C(N)=O)NC(=O)[C@H](CCCC(N)=O)NC(=O)[C@H]([C@@H](C)O)NC(=O)[C@H](Cc2cn(C)c3ccccc23)NC(=O)[C@H](CCCCNC(=O)N2CCN(CC(=O)O)CC2)NC(=O)[C@H](Cc2cn(C)c3ccccc23)NC(=O)[C@H](CCC(=O)O)N(C)C(=O)[C@H](CCCC(N)=O)NC1=O.[Lu+3] [PDC_EphA2-00007196-C304] ({CH2CO}-[dA][NMe3Pal]NL[Aad](NH2)[NMeE][Trp(1-Me)]K([CO-Piperazinyl(4-CH2COOH)])[Trp(1-Me)]T[Aad](NH2)C[βAla][dK]([PEG2-PEG8-DOTA])-NH2; thioether N-12) | < 1 nM | 
CC(C)C[C@@H]1NC(=O)[C@H](CC(N)=O)NC(=O)[C@H](Cc2cccnc2)N(C)C(=O)[C@@H](C)NC(=O)CSC[C@@H](C(=O)N[C@H](CCCCNC(=O)CN(C)C(=O)CN(C)C(=O)CN(C)C(=O)CN(C)C(=O)CN(C)C(=O)CN(C)C(=O)CN(C)C(=O)CN(C)C(=O)CN(C)C(=O)CN(C)C(=O)CCNC(=O)CN2CCN3CCN4CCN(CC2)CC(=O)[O][Lu]([O]C(=O)C3)[O]C(=O)C4)C(N)=O)NC(=O)[C@H](CCCC(N)=O)NC(=O)[C@H]([C@@H](C)O)NC(=O)[C@H](Cc2cn(C)c3ccccc23)NC(=O)[C@H](CCCCNC(=O)N2CCN(CC(=O)O)CC2)NC(=O)[C@H](Cc2cn(C)c3ccccc23)NC(=O)C(CCC(=O)O)N(C)C(=O)[C@H](CCCC(N)=O)NC1=O (some centres unmarked) [PDC_EphA2-00007196-C310] |  | Kd: < 1 nM
CC(=O)NCCCC[C@@H](NC(=O)CCNC(=O)[C@@H]1CSCC(=O)N[C@H](C)C(=O)N(C)[C@@H](Cc2cccnc2)C(=O)N[C@@H](CC(N)=O)C(=O)N[C@@H](CC(C)C)C(=O)N[C@@H](CCCC(=O)O)C(=O)N(C)[C@@H](Cc2ccccc2)C(=O)N[C@@H](Cc2cn(C)c3ccccc23)C(=O)N[C@@H](C(C)C)C(=O)N[C@@H](Cc2cn(C)c3ccccc23)C(=O)N[C@@H]([C@@H](C)O)C(=O)N[C@@H](CCC(=O)O)C(=O)N1)C(N)=O [PDC_EphA2-00008083] ({CH2CO}-[dA][NMe3Pal]NL[Aad][NMeF][Trp(1-Me)]V[Trp(1-Me)]TEC[βAla][dK](Ac)-NH2; thioether N-12) |  | Kd [2]: < 1 nM
CC(C)C[C@@H]1NC(=O)[C@H](CC(N)=O)NC(=O)[C@H](Cc2cccnc2)N(C)C(=O)[C@@H](C)NC(=O)CSC[C@@H](C(=O)NCCC(=O)N[C@H](CCCCNC(=O)CCOCCOCCNC(=O)CCOCCOCCOCCOCCOCCOCCOCCOCCNC(=O)CN2CCN(CC(=O)O)CCN(CC(=O)O)CCN(CC(=O)O)CC2)C(N)=O)NC(=O)[C@H](CCCC(N)=O)NC(=O)[C@H]([C@@H](C)O)NC(=O)[C@H](Cc2cn(C)c3ccccc23)NC(=O)[C@H](CCCCNC(=O)N2CCN(CC(=O)O)CC2)NC(=O)[C@H](Cc2cn(C)c3ccccc23)NC(=O)[C@H](Cc2ccccc2)N(C)C(=O)[C@H](CCCC(N)=O)NC1=O.[Lu+3] [PDC_EphA2-00008093-C304] ({CH2CO}-[dA][NMe3Pal]NL[Aad](NH2)[NMeF][Trp(1-Me)]K([CO-Piperazinyl(4-CH2COOH)])[Trp(1-Me)]T[Aad](NH2)C[βAla][dK]([PEG2-PEG8-DOTA])-NH2; thioether N-12) | < 1 nM | 
CC(C)C[C@@H]1NC(=O)[C@H](CC(N)=O)NC(=O)[C@H](Cc2cccnc2)N(C)C(=O)[C@@H](C)NC(=O)CSC[C@@H](C(=O)NCCC(=O)N[C@H](CCCCNC(=O)CCOCCOCCNC(=O)CCOCCOCCOCCOCCOCCOCCOCCOCCNC(=O)CN2CCN(CC(=O)O)CCN(CC(=O)O)CCN(CC(=O)O)CC2)C(N)=O)NC(=O)[C@H](CCCC(N)=O)NC(=O)[C@H]([C@@H](C)O)NC(=O)[C@H](Cc2cn(C)c3ccccc23)NC(=O)[C@H](CCCCNC(=O)N2CCN(CC(=O)O)CC2)NC(=O)[C@H](Cc2cn(C)c3ccccc23)NC(=O)[C@H](CCC(=O)O)N(C)C(=O)[C@H](CCCC(=O)O)NC1=O.[Lu+3] [PDC_EphA2-00008094-C304] ({CH2CO}-[dA][NMe3Pal]NL[Aad][NMeE][Trp(1-Me)]K([CO-Piperazinyl(4-CH2COOH)])[Trp(1-Me)]T[Aad](NH2)C[βAla][dK]([PEG2-PEG8-DOTA])-NH2; thioether N-12) | < 1 nM | 
C[C@H]1NC(=O)CSC[C@@H](C(=O)N[C@H](CCCCNC(=O)CN2CCN(CC(=O)O)CCN(CC(=O)O)CCN(CC(=O)O)CC2)C(N)=O)NC(=O)[C@H](CCCC(N)=O)NC(=O)[C@H]([C@@H](C)O)NC(=O)[C@H](Cc2cn(C)c3ccccc23)NC(=O)[C@H](CCC(=O)NC[C@H](O)[C@@H](O)[C@H](O)[C@H](O)CO)NC(=O)[C@H](Cc2cn(C)c3ccccc23)NC(=O)[C@H](CC(N)=O)N(C)C(=O)[C@H](CCCC(N)=O)NC(=O)[C@H](C2CCC2)NC(=O)[C@H](CC(N)=O)NC(=O)[C@H](Cc2ccccc2)N(C)C1=O.[Lu+3] [PDC_EphA2-00013703-C302] ({CH2CO}-[dA][NMeF]N[Gly(cBu)][Aad](NH2)[NMeN][Trp(1-Me)]E(NH(1-deoxy-D-glucityl))[Trp(1-Me)]T[Aad](NH2)C[dK](DOTA)-NH2; thioether N-12) | < 1 nM | 
C[C@H]1NC(=O)CSC[C@@H](C(=O)N[C@H](CCCCNC(=O)CN2CCN3CCN4CCN(CC2)CC(=O)[O][Lu]([O]C(=O)C3)[O]C(=O)C4)C(N)=O)NC(=O)[C@H](CCCC(N)=O)NC(=O)[C@H]([C@@H](C)O)NC(=O)[C@H](Cc2cn(C)c3ccccc23)NC(=O)[C@H](CCC(=O)NC[C@H](O)[C@@H](O)[C@H](O)[C@H](O)CO)NC(=O)[C@H](Cc2cn(C)c3ccccc23)NC(=O)[C@H](Cc2cccnc2)N(C)C(=O)[C@H](CCCC(N)=O)NC(=O)[C@H](C2CCC2)NC(=O)[C@H](CC(N)=O)NC(=O)[C@H](Cc2ccccc2)N(C)C1=O [PDC_EphA2-00013704-C302] ({CH2CO}-[dA][NMeF]N[Gly(cBu)][Aad](NH2)[NMe3Pal][Trp(1-Me)]E(NH(1-deoxy-D-glucityl))[Trp(1-Me)]T[Aad](NH2)C[dK](DOTA(Lu))-NH2; thioether N-12) |  | Kd: < 1 nM
C[C@H]1NC(=O)CSC[C@@H](C(=O)N[C@H](CCCCNC(=O)CN2CCN3CCN4CCN(CC2)CC(=O)[O][Lu]([O]C(=O)C3)[O]C(=O)C4)C(N)=O)NC(=O)[C@H](CCCC(N)=O)NC(=O)[C@H]([C@@H](C)O)NC(=O)[C@H](Cc2cn(C)c3ccccc23)NC(=O)[C@H](CCC(=O)NC[C@H](O)[C@@H](O)[C@H](O)[C@H](O)CO)NC(=O)[C@H](Cc2cn(C)c3ccccc23)NC(=O)[C@H](Cc2cccnc2)N(C)C(=O)[C@H](CCCC(N)=O)NC(=O)[C@H](C2CCC2)NC(=O)[C@H](CC(N)=O)NC(=O)[C@H](Cc2cccnc2)N(C)C1=O [PDC_EphA2-00013705-C302] ({CH2CO}-[dA][NMe3Pal]N[Gly(cBu)][Aad](NH2)[NMe3Pal][Trp(1-Me)]E(NH(1-deoxy-D-glucityl))[Trp(1-Me)]T[Aad](NH2)C[dK](DOTA(Lu))-NH2; thioether N-12) |  | Kd: < 1 nM
C[C@@H](O)[C@@H]1NC(=O)[C@H](Cc2cn(C)c3ccccc23)NC(=O)[C@H](CCCCNC(N)=O)NC(=O)[C@H](Cc2cn(C)c3c(Cl)cccc23)NC(=O)[C@H](CC(N)=O)N(C)C(=O)[C@H](CCCC(N)=O)NC(=O)[C@H](C2CCC2)NC(=O)[C@H](CC(N)=O)NC(=O)[C@H](Cc2ccccc2)N(C)C(=O)[C@@H](Cc2cccc(C(N)=O)c2)NC(=O)CSC[C@@H](C(N)=O)NC(=O)[C@H](CCCC(N)=O)NC1=O [PDC_EphA2-00019426] ({CH2CO}-[dPhe(3-CONH2)][NMeF]N[Gly(cBu)][Aad](NH2)[NMeN][Trp(1-Me,7-Cl)][hCit][Trp(1-Me)]T[Aad](NH2)C-NH2; thioether N-12) |  | Kd [2]: < 1 nM
C[C@@H](O)[C@@H]1NC(=O)[C@H](Cc2cn(C)c3ccccc23)NC(=O)[C@H](CCC(=O)NC[C@H](O)[C@@H](O)[C@H](O)[C@H](O)CO)NC(=O)[C@H](Cc2cn(C)c3c(Cl)cccc23)NC(=O)[C@H](Cc2cccnc2)N(C)C(=O)[C@H](CCCC(N)=O)NC(=O)[C@H](C2CCC2)NC(=O)[C@H](CC(N)=O)NC(=O)[C@H](Cc2cccnc2)N(C)C(=O)[C@@H](Cc2cccc(C(N)=O)c2)NC(=O)CSC[C@@H](C(=O)N[C@H](CCCCNC(=O)CN2CCN(CC(=O)O)CCN(CC(=O)O)CCN(CC(=O)O)CC2)C(N)=O)NC(=O)[C@H](CCCC(N)=O)NC1=O.[Lu+3] [PDC_EphA2-00019437-C302] ({CH2CO}-[dPhe(3-CONH2)][NMe3Pal]N[Gly(cBu)][Aad](NH2)[NMe3Pal][Trp(1-Me,7-Cl)]E(NH(1-deoxy-D-glucityl))[Trp(1-Me)]T[Aad](NH2)C[dK](DOTA)-NH2; thioether N-12) | < 1 nM | 
